Laboratory results from the supplement of paper PMC5908809.

What was measured:
YT (IL-2 2.5 ng/mL) [1] = test: percent inhibition of viability; higher = more inhibition; details: 72 h
NK-92 (IL-2 2.5 ng/mL) [2] = test: as above; details: 72 h
[3] = system: normal primary NK cells, pool 1 (3 donors), resting (IL-2 0 ng/mL); test: as above; details: 72 h
IMC-1 (IL-2 20 ng/mL) [4] = test: as above; details: 72 h
[5] = system: normal primary NK cells, pool 1 (3 donors) (IL-2 2.5 ng/mL); test: as above; details: 72 h
NK-YS (IL-2 2.5 ng/mL) [6] = test: as above; details: 72 h
NKL (IL-2 2.5 ng/mL) [7] = test: as above; details: 72 h
[8] = system: normal primary NK cells, pool 3 (3 donors) (IL-2 2.5 ng/mL); test: as above; details: 72 h
KHYG-1 (IL-2 2.5 ng/mL) [9] = test: as above; details: 72 h
KAI3 (IL-2 2.5 ng/mL) [10] = test: as above; details: 72 h
SNK-6 (IL-2 2.5 ng/mL) [11] = test: as above; details: 72 h
[12] = system: normal primary NK cells, pool 2 (3 donors) (IL-2 2.5 ng/mL); test: as above; details: 72 h
DERL-7 (IL-2 2.5 ng/mL) [13] = test: as above; details: 72 h
[14] = system: normal NK cells expanded with K562-aAPC; test: as above; details: 72 h, IL-2 2.5 ng/mL
Description: (§1)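 Drug sensitivity and resistance testing on K562-aAPC-expanded normal NK cells: 5 concentrations (10-fold steps over a 10,000-fold range), 72 h at 37 °C, viability by CellTiter-Glo normalised to DMSO and benzethonium chloride controls; DSS from the fitted curve.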

[15] = system: normal NK cells expanded with K562-aAPC; test: drug sensitivity score (DSS) (DSS units); higher = more sensitive; extreme values may be limits of the assay; details: 72 h; IL-2 2.5 ng/mL
Description: as §1

YT (IL-2 2.5 ng/mL) [16] = test: as above; details: 72 h
NK-92 (IL-2 2.5 ng/mL) [17] = test: as above; details: 72 h
[18] = system: normal primary NK cells, pool 1 (3 donors), resting (IL-2 0 ng/mL); test: as above; details: 72 h
IMC-1 (IL-2 20 ng/mL) [19] = test: as above; details: 72 h
[20] = system: normal primary NK cells, pool 1 (3 donors) (IL-2 2.5 ng/mL); test: as above; details: 72 h
NK-YS (IL-2 2.5 ng/mL) [21] = test: as above; details: 72 h
NKL (IL-2 2.5 ng/mL) [22] = test: as above; details: 72 h
[23] = system: normal primary NK cells, pool 3 (3 donors) (IL-2 2.5 ng/mL); test: as above; details: 72 h
KHYG-1 (IL-2 2.5 ng/mL) [24] = test: as above; details: 72 h
KAI3 (IL-2 2.5 ng/mL) [25] = test: as above; details: 72 h
SNK-6 (IL-2 2.5 ng/mL) [26] = test: as above; details: 72 h
[27] = system: normal primary NK cells, pool 2 (3 donors) (IL-2 2.5 ng/mL); test: as above; details: 72 h
DERL-7 (IL-2 2.5 ng/mL) [28] = test: as above; details: 72 h

With `Cn1cc(-c2cnn3c(N)c(Br)c([C@@H]4CCCNC4)nc23)cn1` [MK-8776] (max concentration tested 2500 nM) the “percent inhibition of viability” value (YT (IL-2 2.5 ng/mL) [1]; 0.25 nM) was 0.02%, the “percent inhibition of viability” value (YT (IL-2 2.5 ng/mL) [1]; 2.5 nM) was -2.99% and the “percent inhibition of viability” value (YT (IL-2 2.5 ng/mL) [1]; 25 nM) was 0.3%. For the same compound, the “percent inhibition of viability” value (YT (IL-2 2.5 ng/mL) [1]; 250 nM) was 1.22%, the “percent inhibition of viability” value (YT (IL-2 2.5 ng/mL) [1]; 2500 nM) was 7.84% and the “percent inhibition of viability” value (NK-92 (IL-2 2.5 ng/mL) [2]; 0.25 nM) was -2.81%. For the same compound, the “percent inhibition of viability” value (NK-92 (IL-2 2.5 ng/mL) [2]; 2.5 nM) was 3.64%, the “percent inhibition of viability” value (NK-92 (IL-2 2.5 ng/mL) [2]; 25 nM) was -4.5% and the “percent inhibition of viability” value (NK-92 (IL-2 2.5 ng/mL) [2]; 250 nM) was 1.39%. The “percent inhibition of viability” value (NK-92 (IL-2 2.5 ng/mL) [2]; 2500 nM) was 59.4%, the “percent inhibition of viability” value ([3]; 0.25 nM) was -9.91% and the “percent inhibition of viability” value ([3]; 2.5 nM) was -16.5%. For the same compound, the “percent inhibition of viability” value ([3]; 25 nM) was 4.6%, the “percent inhibition of viability” value ([3]; 250 nM) was 0.8% and the “percent inhibition of viability” value ([3]; 2500 nM) was 20%. For the same compound, the “percent inhibition of viability” value (IMC-1 (IL-2 20 ng/mL) [4]; 0.25 nM) was 0.83%, the “percent inhibition of viability” value (IMC-1 (IL-2 20 ng/mL) [4]; 2.5 nM) was -1.94% and the “percent inhibition of viability” value (IMC-1 (IL-2 20 ng/mL) [4]; 25 nM) was -0.11%. For the same compound, the “percent inhibition of viability” value (IMC-1 (IL-2 20 ng/mL) [4]; 250 nM) was -7.96%, the “percent inhibition of viability” value (IMC-1 (IL-2 20 ng/mL) [4]; 2500 nM) was -12.2% and the “percent inhibition of viability” value ([5]; 0.25 nM) was -5.76%. For the same compound, the “percent inhibition of viability” value ([5]; 2.5 nM) was -3.11%, the “percent inhibition of viability” value ([5]; 25 nM) was 7.06% and the “percent inhibition of viability” value ([5]; 250 nM) was 4.82%. The “percent inhibition of viability” value ([5]; 2500 nM) was 30.9%, the “percent inhibition of viability” value (NK-YS (IL-2 2.5 ng/mL) [6]; 0.25 nM) was -4.27% and the “percent inhibition of viability” value (NK-YS (IL-2 2.5 ng/mL) [6]; 2.5 nM) was -8.69%. The “percent inhibition of viability” value (NK-YS (IL-2 2.5 ng/mL) [6]; 25 nM) was -3.31%, the “percent inhibition of viability” value (NK-YS (IL-2 2.5 ng/mL) [6]; 250 nM) was 4.44% and the “percent inhibition of viability” value (NK-YS (IL-2 2.5 ng/mL) [6]; 2500 nM) was 71.2%. The “percent inhibition of viability” value (NKL (IL-2 2.5 ng/mL) [7]; 0.25 nM) was -4.57%, the “percent inhibition of viability” value (NKL (IL-2 2.5 ng/mL) [7]; 2.5 nM) was -4.36% and the “percent inhibition of viability” value (NKL (IL-2 2.5 ng/mL) [7]; 25 nM) was -8.73%. For the same compound, the “percent inhibition of viability” value (NKL (IL-2 2.5 ng/mL) [7]; 250 nM) was 22.1%, the “percent inhibition of viability” value (NKL (IL-2 2.5 ng/mL) [7]; 2500 nM) was 81.6% and the “percent inhibition of viability” value ([8]; 0.25 nM) was -9.21%. For the same compound, the “percent inhibition of viability” value ([8]; 2.5 nM) was -3.85%, the “percent inhibition of viability” value ([8]; 25 nM) was -3.76% and the “percent inhibition of viability” value ([8]; 250 nM) was -1.26%. For the same compound, the “percent inhibition of viability” value ([8]; 2500 nM) was 7.54%, the “percent inhibition of viability” value (KHYG-1 (IL-2 2.5 ng/mL) [9]; 0.25 nM) was -1.01% and the “percent inhibition of viability” value (KHYG-1 (IL-2 2.5 ng/mL) [9]; 2.5 nM) was -4.38%. The “percent inhibition of viability” value (KHYG-1 (IL-2 2.5 ng/mL) [9]; 25 nM) was -0.53%, the “percent inhibition of viability” value (KHYG-1 (IL-2 2.5 ng/mL) [9]; 250 nM) was 35.5% and the “percent inhibition of viability” value (KHYG-1 (IL-2 2.5 ng/mL) [9]; 2500 nM) was 96.9%. The “percent inhibition of viability” value (KAI3 (IL-2 2.5 ng/mL) [10]; 0.25 nM) was 3.31%, the “percent inhibition of viability” value (KAI3 (IL-2 2.5 ng/mL) [10]; 2.5 nM) was 2.43% and the “percent inhibition of viability” value (KAI3 (IL-2 2.5 ng/mL) [10]; 25 nM) was 4.64%. The “percent inhibition of viability” value (KAI3 (IL-2 2.5 ng/mL) [10]; 250 nM) was 27.4%, the “percent inhibition of viability” value (KAI3 (IL-2 2.5 ng/mL) [10]; 2500 nM) was 78.2% and the “percent inhibition of viability” value (SNK-6 (IL-2 2.5 ng/mL) [11]; 0.25 nM) was 9.37%. The “percent inhibition of viability” value (SNK-6 (IL-2 2.5 ng/mL) [11]; 2.5 nM) was 1.96%, the “percent inhibition of viability” value (SNK-6 (IL-2 2.5 ng/mL) [11]; 25 nM) was -6.2% and the “percent inhibition of viability” value (SNK-6 (IL-2 2.5 ng/mL) [11]; 250 nM) was 5.96%. The “percent inhibition of viability” value (SNK-6 (IL-2 2.5 ng/mL) [11]; 2500 nM) was 39.8%, the “percent inhibition of viability” value ([12]; 0.25 nM) was -8.05% and the “percent inhibition of viability” value ([12]; 2.5 nM) was -5.57%. The “percent inhibition of viability” value ([12]; 25 nM) was -3.65%, the “percent inhibition of viability” value ([12]; 250 nM) was -0.92% and the “percent inhibition of viability” value ([12]; 2500 nM) was 21.5%. For the same compound, the “percent inhibition of viability” value (DERL-7 (IL-2 2.5 ng/mL) [13]; 0.25 nM) was -4.26%, the “percent inhibition of viability” value (DERL-7 (IL-2 2.5 ng/mL) [13]; 2.5 nM) was -3.5% and the “percent inhibition of viability” value (DERL-7 (IL-2 2.5 ng/mL) [13]; 25 nM) was 3.67%. The “percent inhibition of viability” value (DERL-7 (IL-2 2.5 ng/mL) [13]; 250 nM) was 6.88%, the “percent inhibition of viability” value (DERL-7 (IL-2 2.5 ng/mL) [13]; 2500 nM) was 55.8% and the “percent inhibition of viability” value ([14]; 0.25 nM) was -4.61%. For the same compound, the “percent inhibition of viability” value ([14]; 2.5 nM) was 0.4%, the “percent inhibition of viability” value ([14]; 25 nM) was -2.28% and the “percent inhibition of viability” value ([14]; 250 nM) was 10.6%. For the same compound, the “percent inhibition of viability” value ([14]; 2500 nM) was 52.3%, the drug sensitivity score [15] was 4.51 and the drug sensitivity score (YT (IL-2 2.5 ng/mL) [16]) was 0. For the same compound, the drug sensitivity score (NK-92 (IL-2 2.5 ng/mL) [17]) was 3.39, the drug sensitivity score [18] was 0.68 and the drug sensitivity score (IMC-1 (IL-2 20 ng/mL) [19]) was 0. The drug sensitivity score [20] was 2.16, the drug sensitivity score (NK-YS (IL-2 2.5 ng/mL) [21]) was 4.58 and the drug sensitivity score (NKL (IL-2 2.5 ng/mL) [22]) was 7.86. The drug sensitivity score [23] was 0, the drug sensitivity score (KHYG-1 (IL-2 2.5 ng/mL) [24]) was 10.2 and the drug sensitivity score (KAI3 (IL-2 2.5 ng/mL) [25]) was 7.81. The drug sensitivity score (SNK-6 (IL-2 2.5 ng/mL) [26]) was 2.97, the drug sensitivity score [27] was 0.64 and the drug sensitivity score (DERL-7 (IL-2 2.5 ng/mL) [28]) was 4.16.
